Laboratory results from US20210261561A1, “BICYCLIC HETEROCYCLE DERIVATIVES HAVING SELECTIVE BACE1 INHIBITORY ACTIVITY” (SHIONOGI & CO., LTD., priority 2018, published 2021).
pIC50: −log10 of the molar value.

What was measured:
BACE2 [1] = target: T1, BACE2 (Homo sapiens, UniProt Q9Y5Z0); test: BACE2 biochemical FRET based assay (Test Example 2-1 (2)); conditions: 0.4 μg/mL BACE2, 450 minutes, Citrate buffer pH 5.0
T1 sequence (Q9Y5Z0 63-518): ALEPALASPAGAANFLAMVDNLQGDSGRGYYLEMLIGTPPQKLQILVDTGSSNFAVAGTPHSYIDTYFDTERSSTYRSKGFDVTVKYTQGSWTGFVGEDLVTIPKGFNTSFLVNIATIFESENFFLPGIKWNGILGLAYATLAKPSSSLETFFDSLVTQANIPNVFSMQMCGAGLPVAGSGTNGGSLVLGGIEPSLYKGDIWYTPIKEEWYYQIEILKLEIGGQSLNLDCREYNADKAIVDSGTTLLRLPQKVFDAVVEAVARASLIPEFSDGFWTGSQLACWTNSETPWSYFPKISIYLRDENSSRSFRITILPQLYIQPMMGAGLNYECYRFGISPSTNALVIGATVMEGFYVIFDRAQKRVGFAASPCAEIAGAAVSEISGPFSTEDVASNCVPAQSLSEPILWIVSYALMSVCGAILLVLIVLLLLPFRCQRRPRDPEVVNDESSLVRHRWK
Description: This assay is a Fluorescence Resonance Energy Transfer Assay (FRET) based assay. The substrate for this assay contains the ‘Swedish’ Lys-Met/Asn-Leu mutation of the amyloid precursor protein (APP) beta-secretase cleavage site. This substrate also contains two fluorophores: (7-methoxycoumarin-4-yl) acetic acid (Mca) is a fluorescent donor with excitation wavelength at 320 nm and emission at 405 nm and 2,4-dinitrophenol (Dnp) is a proprietary quencher acceptor. […] Upon cleavage by the beta-secretase, the fluorophore Mca is separated from the quenching group Dnp, restoring the full fluorescence yield of the donor. The increase in fluorescence is linearly related to the rate of proteolysis. Briefly in a 384-well format recombinant BACE2 protein in a final concentration of 0.4 μg/mL was incubated for 450 minutes at room temperature with 10 μM substrate in incubation buffer (final concentrations: 33.3 mM Citrate buffer pH 5.0, 0.033% PEG, 2% DMSO) in the absence or presence of compound. Next the amount of proteolysis was directly measured by fluorescence measurement at T=0 and T=450 (excitation at 320 nm and emission at 405 nm). Results were expressed in RFU (Relative Fluorescence Units), as difference between T450 and TO.
A best-fit curve was fitted by a minimum sum of squares method to the plot of % Controlmin versus compound concentration. From this an IC50 value (inhibitory concentration causing 50% inhibition of activity) can be obtained.

BACE1 [2] = target: T2, BACE1 (Homo sapiens, UniProt P56817); test: BACE1 biochemical FRET based assay (Test Example 2-1); conditions: for selectivity: BACE2 IC50 over BACE1 IC50 (FRET); for pIC50: FRET, 0.04 μg/mL BACE1, 450 minutes, Citrate buffer pH 5.0
Description: (§1) This assay is a Fluorescence Resonance Energy Transfer Assay (FRET) based assay. The substrate for this assay is an APP derived 13 amino acids peptide that contains the ‘Swedish’ Lys-Met/Asn-Leu mutation of the amyloid precursor protein (APP) beta-site secretase cleavage site. This substrate also contains two fluorophores: (7-methoxycoumarin-4-yl) acetic acid (Mca) is a fluorescent donor with excitation wavelength at 320 nm and emission at 405 nm and 2,4-dinitrophenol (Dnp) is a proprietary quencher acceptor. […] Upon cleavage by BACE1, the fluorophore Mca is separated from the quenching group Dnp, restoring the full fluorescence yield of the donor. The increase in fluorescence is linearly related to the rate of proteolysis.
(§2) Briefly in a 384-well format recombinant BACE1 protein in a final concentration of 0.04 μg/mL is incubated for 450 minutes at room temperature with […] substrate in incubation buffer (final concentrations: 33.3 mM Citrate buffer pH 5.0, 0.033% PEG, 3% DMSO) in the absence or presence of compound. Next the amount of proteolysis is directly measured by fluorescence measurement at T=0′-120′ and T=450′ (excitation at 320 nm and emission at 405 nm). Results are expressed in RFU (Relative Fluorescence Units), as difference between T450 and Tx (Tx is chosen depending on the reaction speed between 0 and 120 minutes.).
A best-fit curve is fitted by a minimum sum of squares method to the plot of % Controlmin versus compound concentration. From this an IC50 value (inhibitory concentration causing 50% inhibition of activity) can be obtained.

BACE1 [3] = target: T2, BACE1; test: BACE1 cellular αLisa assay in SKNBE2 cells, Abeta 1-42 (Test Example 2-3); type: cell-based; design: endogenous in cells; host or cells: SKNBE2 human neuroblastoma cells expressing hAPP695; conditions: SKNBE2 cells expressing hAPP695, 18 hours incubation, read-out: Cellular αLisa assay in SKNBE2 cells Abeta 42 pIC50 (converted)
Protocol: In two αLisa assays the levels of Abeta 1-42 or Abeta total produced and secreted into the medium of human neuroblastoma SKNBE2 cells are quantified. The assays are based on the human neuroblastoma SKNBE2 expressing the wild type Amyloid Precursor Protein (hAPP695). The compounds are diluted and added to these cells, incubated for 18 hours and then measurements of Abeta 1-42 or Abeta total are taken. Abeta 1-42 or Abeta total are measured by sandwich αLisa using biotinylated antibody AbN/25 attached to streptavidin coated donor beads and antibody cAb42/26 or Ab 4G8 conjugated acceptor beads for the detection of Abeta 1-42 or Abeta total respectively. In the presence of Abeta 1-42 or Abeta total, the beads come into close proximity. The excitation of the donor beads provokes the release of singlet oxygen molecules that trigger a cascade of energy transfer in the acceptor beads, resulting in light emission. Light emission is measured after 1 h incubation (excitation at […] and emission at 615 nm).
(§3) Data are analysed using Screener (Registered trademark) (Genedata, Switzerland). Data were normalized and % inhibition=100−[(sample−LC)/(HC−LC))*100], was plotted versus the log concentration of the test compound. Curves were analysed using non-linear regression analysis and IC50 values (inhibitory concentration causing 50% inhibition of activity) were derived from individual curves.
LC=Median of the low control values • =Low control: Reaction without enzyme
HC=Median of the High control values • =High Control: Reaction with enzyme
(§4) % Inhibition=100−[(sample−LC)/(HC−LC)*100]

BACE2 [4] = target: T3, BACE2 (Mus musculus, UniProt Q9JL18); test: BACE2 cellular assay in MIN6 cells, secreted TMEM27 (Test Example 2-5); type: cell-based; conditions: 24 hours incubation, secreted TMEM27 by MSD, read-out: Cellular MSD assay in Min6 cells TV1EV127 pIC50 (converted)
T3 construct: endogenous in cells; host or cells: MIN6 mouse insulinoma cells expressing Flag-V5-TMEM27-HA
T3 sequence (Q9JL18 63-514): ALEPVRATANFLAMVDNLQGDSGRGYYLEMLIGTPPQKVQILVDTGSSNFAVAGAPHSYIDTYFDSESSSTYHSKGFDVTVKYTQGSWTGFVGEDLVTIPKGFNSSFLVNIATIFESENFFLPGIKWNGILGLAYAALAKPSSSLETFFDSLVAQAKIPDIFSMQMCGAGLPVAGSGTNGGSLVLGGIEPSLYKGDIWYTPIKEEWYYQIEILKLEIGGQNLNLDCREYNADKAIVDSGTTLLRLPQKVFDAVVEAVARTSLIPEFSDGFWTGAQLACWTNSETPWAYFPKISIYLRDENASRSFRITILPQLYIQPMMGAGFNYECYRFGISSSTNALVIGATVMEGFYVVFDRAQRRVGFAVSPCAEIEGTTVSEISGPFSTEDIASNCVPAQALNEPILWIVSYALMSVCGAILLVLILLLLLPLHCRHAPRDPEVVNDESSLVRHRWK
Protocol: Cellular BACE2 activity was measured by determination of the level of secreted TMEM27 into the medium of MIN6 cells using an MSD platform. The assay is based on the mouse insulinoma MIN6 cells expressing Flag-V5-TMEM27-HA. When BACE2 cleaves TMEM27 the N-terminal part of TMEM27 with the V5-Flag tag will be shed into the medium, and the amount of this cleaved product is measured with the MSD assay.
Briefly in a 96-well format the cells are incubated for 24 hours in the presence of the compound followed by the measurement of secreted TMEM27 in the medium via MSD using FLAG-L5 coating antibody and a V5 detection antibody. When TMEM27 is captured on the electrode surface of the multi-array microplate the detection antibody, conjugated with the sulfo-Tag™, is in close proximity of the surface, it generates a light via a series of reduction and oxidation reactions. The intensity of the emitted light is measured with the MSD imager to provide a quantitative measure for the analytes in the sample.
as §3
(§5) LC=Median of the low control values
(§6) =Low control: Reaction without enzyme
(§7) HC=Median of the High control values
(§8) =High Control: Reaction with enzyme
as §4

BACE1 [5] = target: T2, BACE1; test: BACE1 biochemical FRET based assay - Method 1 (Test Example 2-2); conditions: 0.04 μg/mL BACE1, 450 minutes, Citrate buffer pH 5.0, read-out: BACE1 Biochemical FRET based assay - Method 1 PIC50 (converted)
Description: as §1, §2, §3, §5, §6, §7, §8, §4

BACE2 [6] = target: T1, BACE2; test: BACE2 biochemical FRET based assay (Test Example 2-4); conditions: recombinant BACE2 0.4 μg/mL, 10 μM substrate, 450 minutes, pH 5.0; read-out: BACE2 Biochemical FRET based assay pIC50 (converted)
Description: as §1, with “assay” for “assay is an APP derived 13 amino acids peptide that”, “beta-secretase” for “beta-site secretase”, “the beta-secretase,” for “BACE1,”
Briefly in a 384-well format recombinant BACE2 protein in a final concentration of 0.4 μg/mL is incubated for 450 minutes at room temperature with 10 μM substrate in incubation buffer (final concentrations: 33.3 mM Citrate buffer pH 5.0, 0.033% PEG, 2% DMSO) in the absence or presence of compound. Next the amount of proteolysis is directly measured by fluorescence measurement at T=0 and T=450 (excitation at 320 nm and emission at 405 nm). Results are expressed in RFU (Relative Fluorescence Units), as difference between T450 and TO.
as §3, §5, §6, §7, §8, §4

T2 sequence (P56817 46-501): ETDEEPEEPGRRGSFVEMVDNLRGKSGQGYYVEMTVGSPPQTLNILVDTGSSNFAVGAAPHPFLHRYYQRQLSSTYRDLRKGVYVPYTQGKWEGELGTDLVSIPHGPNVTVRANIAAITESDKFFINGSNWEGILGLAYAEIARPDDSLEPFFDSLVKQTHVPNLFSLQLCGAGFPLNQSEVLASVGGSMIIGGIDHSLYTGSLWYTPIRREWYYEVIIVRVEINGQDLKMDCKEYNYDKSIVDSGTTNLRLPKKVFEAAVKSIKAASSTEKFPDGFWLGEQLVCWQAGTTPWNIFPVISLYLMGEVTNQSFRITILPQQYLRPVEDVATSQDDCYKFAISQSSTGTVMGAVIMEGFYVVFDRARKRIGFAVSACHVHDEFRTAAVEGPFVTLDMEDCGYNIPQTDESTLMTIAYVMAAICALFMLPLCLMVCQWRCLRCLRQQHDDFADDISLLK

| SMILES | pIC50 (BACE2 [1]) | selectivity (BACE1 [2]) | pIC50 (BACE1 [2]) | IC50 (BACE1 [3]) [nM] | IC50 (BACE2 [4]) [nM] | IC50 (BACE1 [5]) [nM] | IC50 (BACE2 [6]) [nM] |
| --- | --- | --- | --- | --- | --- | --- | --- |
| C[C@H]1OC[C@H]2OC(N)=N[C@](CF)(c3cc(NC(=O)c4cc5c(cn4)OC(F)(F)CO5)ccc3F)[C@@H]12 [Compound I-039] | 6.31 | 218 | 8.65 | – | – | – | – |
| CC[C@@H]1OC[C@H]2OC(N)=N[C@](CF)(c3cc(NC(=O)c4cc5c(cn4)OC(F)(F)CO5)ccc3F)[C@@H]12 [Compound I-040] | 5.69 | 257 | 8.10 | – | – | – | – |
| NC1=N[C@](CF)(c2cc(NC(=O)c3cc4c(cn3)OC(F)(F)CO4)ccc2F)[C@H]2OCC[C@H]2O1 [Compound I-043] | 5.64 | 234 | 8.01 | – | – | – | – |
| C[C@@H]1OC[C@H]2OC(N)=N[C@](CF)(c3cc(NC(=O)c4cc5c(cn4)OC(F)(F)CO5)ccc3F)[C@@H]12 [Compound I-044] | 5.72 | 131 | 7.84 | – | – | – | – |
| C[C@H]1OC[C@H]2[C@@H]1OC(N)=N[C@]2(CF)c1cc(NC(=O)c2cc3c(cn2)OC(F)(F)O3)ccc1F [Compound I-050] | 5.97 | 199 | 8.27 | – | – | – | – |
| C[C@@H]1C[C@H]2OC(N)=N[C@](CF)(c3cc(NC(=O)c4cc5c(cn4)OCCO5)ccc3F)[C@H]2CO1 [Compound I-054] | 5.22 | 646 | 8.03 | – | – | – | – |
| NC1=N[C@](CF)(c2cc(NC(=O)c3cc4c(cn3)OC(F)(F)CO4)ccc2F)[C@H]2CO[C@H](CF)C[C@H]2O1 [Compound I-057] | 6.00 | 389 | 8.59 | – | – | – | – |
| CC1(S(C)(=O)=O)CCC(CF)(c2cc(NC(=O)c3cc4c(cn3)OCC(F)O4)ccc2F)N=C1N (centres unmarked) [II-11] | – | – | – | 3.55 | 363 | 6.46 | 331 |
| [2H]C1([2H])Oc2cnc(C(=O)Nc3ccc(F)c(C4(CF)CCC(C)(S(C)(=O)=O)C(N)=N4)c3)c(F)c2OC1([2H])[2H] (centres unmarked) [II-12] | – | – | – | 2.57 | 661 | 4.07 | 372 |
| Cc1c(C(=O)Nc2ccc(F)c(C3(CF)CCC(C)(S(C)(=O)=O)C(N)=N3)c2)ncc2c1OCC(F)(F)O2 (centres unmarked) [II-15] | – | – | – | 22.9 | 427 | 11.7 | 331 |
| CCS(=O)(=O)C1(CF)CCC(C)(c2cc(NC(=O)c3cc4c(cn3)OC(F)(F)CO4)ccc2F)N=C1N (centres unmarked) [II-34] | – | – | – | 3.31 | 295 | 3.24 | 155 |
| CCS(=O)(=O)[C@]1(CF)CC[C@@](C)(c2cc(NC(=O)c3cc4c(cn3)OC(F)(F)O4)ccc2F)N=C1N [II-35] | – | – | – | 9.77 | 617 | 5.37 | 295 |
